Reference: PubChem BioAssay (NCI)
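Exposure lasted 48 hours, with cells grown in 96-well plates and compounds tested at five concentrations. TGI denotes the concentration required for complete inhibition of growth.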

Legend:
Assay in all cases: inhibition of tumour cell growth, NCI panel, 48 h
[1] = tested on: SN12C renal
[2] = tested on: A549 NSCLC
[3] = tested on: PC-3 prostate
[4] = tested on: SF-539 CNS
[5] = tested on: HCC-2998 colon
[6] = tested on: RXF 393 renal
[7] = tested on: HCT-116 colon
[8] = tested on: NCI-H226 lung
[9] = tested on: SR leukemia
[10] = tested on: SK-MEL-28 melanoma
[11] = tested on: RPMI-8226 leukemia
[12] = tested on: A498 renal
[13] = tested on: HOP-62 NSCLC
[14] = tested on: SF-268 CNS
[15] = tested on: OVCAR-3 ovarian
[16] = tested on: SNB-19 CNS
[17] = tested on: OVCAR-4 ovarian
[18] = tested on: NCI/ADR-RES ovarian
[19] = tested on: MDA-N
[20] = tested on: LOX IMVI melanoma
[21] = tested on: HCT-15 colon
[22] = tested on: OVCAR-8 ovarian
[23] = tested on: UO-31 renal
[24] = tested on: CAKI-1 renal
[25] = tested on: MDA-MB-231 breast
[26] = tested on: MCF7 breast
[27] = tested on: KM12 colon
[28] = tested on: 786-0 renal
[29] = tested on: OVCAR-5 ovarian
[30] = tested on: MDA-MB-435
[31] = tested on: ACHN renal
[32] = tested on: BT-549 breast
[33] = tested on: COLO 205 colon
[34] = tested on: EKVX NSCLC
[35] = tested on: NCI-H460 lung
[36] = tested on: SW-620 colon
[37] = tested on: K-562 leukemia
[38] = tested on: SNB-75 CNS
[39] = tested on: U251 CNS
[40] = tested on: MALME-3M melanoma
[41] = tested on: UACC-257 melanoma
[42] = tested on: TK-10 renal
[43] = tested on: SK-MEL-2 melanoma
[44] = tested on: SK-MEL-5 melanoma
[45] = tested on: SF-295 CNS
[46] = tested on: HS 578T breast
[47] = tested on: HL-60(TB) leukemia
[48] = tested on: HT29 colon
[49] = tested on: M14 melanoma
[50] = tested on: IGROV1 ovarian
[51] = tested on: DU-145 prostate
[52] = tested on: NCI-H23 lung
[53] = tested on: SK-OV-3 ovarian
[54] = tested on: CCRF-CEM leukemia
[55] = tested on: T-47D breast
[56] = tested on: HOP-92 NSCLC
[57] = tested on: UACC-62 melanoma
[58] = tested on: MOLT-4 leukemia
[59] = tested on: NCI-H522 lung

`CCn1ncc(Oc2c(Cl)cc(N)cc2Cl)c(Cl)c1=O` was tested, and the TGI [1] was greater than 100 µM, the TGI [2] was greater than 100 µM and the TGI [3] was greater than 100 µM. It also gave a TGI [4] greater than 100 µM, a TGI [5] greater than 100 µM and a TGI [6] greater than 100 µM. The TGI [7] was 80.8 µM, the TGI [8] was greater than 100 µM and the TGI [9] was 80.7 µM. For the same compound, the TGI [10] was greater than 100 µM, the TGI [11] was greater than 100 µM and the TGI [12] was greater than 100 µM. The TGI [13] was greater than 100 µM, the TGI [14] was greater than 100 µM and the TGI [15] was 40.7 µM. For the same compound, the TGI [16] was greater than 100 µM, the TGI [17] was greater than 100 µM and the TGI [18] was greater than 100 µM. It also gave a TGI [19] of 79.6 µM, a TGI [20] greater than 100 µM and a TGI [21] greater than 100 µM. The TGI [22] was greater than 100 µM, the TGI [23] was greater than 100 µM and the TGI [24] was greater than 100 µM. For the same compound, the TGI [25] was greater than 100 µM, the TGI [26] was greater than 100 µM and the TGI [27] was greater than 100 µM. For the same compound, the TGI [28] was greater than 100 µM, the TGI [29] was greater than 100 µM and the TGI [30] was greater than 100 µM. For the same compound, the TGI [31] was greater than 100 µM, the TGI [32] was 91.1 µM and the TGI [33] was 46.9 µM. The TGI [34] was greater than 100 µM, the TGI [35] was greater than 100 µM and the TGI [36] was greater than 100 µM. It also gave a TGI [37] greater than 100 µM, a TGI [38] greater than 100 µM and a TGI [39] greater than 100 µM. It also gave a TGI [40] greater than 100 µM, a TGI [41] greater than 100 µM and a TGI [42] greater than 100 µM. It also gave a TGI [43] greater than 100 µM, a TGI [44] of 65 µM and a TGI [45] of 63.6 µM. The TGI [46] was 67.6 µM, the TGI [47] was greater than 100 µM and the TGI [48] was 58.5 µM. It also gave a TGI [49] greater than 100 µM, a TGI [50] greater than 100 µM and a TGI [51] greater than 100 µM. The TGI [52] was greater than 100 µM, the TGI [53] was 77.9 µM and the TGI [54] was greater than 100 µM. The TGI [55] was greater than 100 µM, the TGI [56] was greater than 100 µM and the TGI [57] was greater than 100 µM.
Work on `Cc1n[nH]c(=O)n1-c1cccnc1` yielded a TGI [1] greater than 100 µM, a TGI [2] greater than 100 µM and a TGI [3] greater than 100 µM. The TGI [4] was greater than 100 µM, the TGI [5] was greater than 100 µM and the TGI [6] was greater than 100 µM. The TGI [7] was greater than 100 µM, the TGI [58] was greater than 100 µM and the TGI [8] was greater than 100 µM. For the same compound, the TGI [9] was greater than 100 µM, the TGI [10] was greater than 100 µM and the TGI [11] was greater than 100 µM. The TGI [12] was greater than 100 µM, the TGI [13] was greater than 100 µM and the TGI [14] was greater than 100 µM. It also gave a TGI [15] greater than 100 µM, a TGI [16] greater than 100 µM and a TGI [17] greater than 100 µM. The TGI [18] was greater than 100 µM, the TGI [19] was greater than 100 µM and the TGI [20] was greater than 100 µM. It also gave a TGI [21] greater than 100 µM, a TGI [22] greater than 100 µM and a TGI [23] greater than 100 µM. The TGI [24] was greater than 100 µM, the TGI [25] was greater than 100 µM and the TGI [26] was greater than 100 µM. For the same compound, the TGI [27] was greater than 100 µM, the TGI [28] was greater than 100 µM and the TGI [29] was greater than 100 µM. The TGI [30] was greater than 100 µM, the TGI [31] was greater than 100 µM and the TGI [32] was greater than 100 µM. It also gave a TGI [33] greater than 100 µM, a TGI [34] greater than 100 µM and a TGI [35] greater than 100 µM. For the same compound, the TGI [36] was greater than 100 µM, the TGI [37] was greater than 100 µM and the TGI [38] was greater than 100 µM. For the same compound, the TGI [39] was greater than 100 µM, the TGI [40] was greater than 100 µM and the TGI [41] was greater than 100 µM. It also gave a TGI [42] greater than 100 µM, a TGI [44] greater than 100 µM and a TGI [45] greater than 100 µM. The TGI [46] was greater than 100 µM, the TGI [47] was greater than 100 µM and the TGI [48] was greater than 100 µM. It also gave a TGI [49] greater than 100 µM, a TGI [50] greater than 100 µM and a TGI [51] greater than 100 µM. The TGI [52] was greater than 100 µM, the TGI [54] was greater than 100 µM and the TGI [55] was greater than 100 µM. For the same compound, the TGI [56] was greater than 100 µM and the TGI [59] was greater than 100 µM.
Work on `CC(C)(C)N/N=C(\C(=O)Nc1ccc([N+](=O)[O-])cc1[N+](=O)[O-])c1nc2ccc([N+](=O)[O-])cc2[nH]c1=O` yielded a TGI [1] greater than 100 µM, a TGI [2] greater than 100 µM and a TGI [3] greater than 100 µM. For the same compound, the TGI [4] was greater than 100 µM, the TGI [5] was greater than 100 µM and the TGI [6] was greater than 100 µM. The TGI [7] was greater than 100 µM, the TGI [58] was greater than 100 µM and the TGI [8] was greater than 100 µM. For the same compound, the TGI [9] was greater than 100 µM, the TGI [10] was greater than 100 µM and the TGI [11] was greater than 100 µM. It also gave a TGI [12] greater than 100 µM, a TGI [14] greater than 100 µM and a TGI [15] greater than 100 µM. It also gave a TGI [16] greater than 100 µM, a TGI [17] greater than 100 µM and a TGI [18] greater than 100 µM. The TGI [19] was greater than 100 µM, the TGI [20] was greater than 100 µM and the TGI [21] was greater than 100 µM. The TGI [22] was greater than 100 µM, the TGI [23] was greater than 100 µM and the TGI [24] was greater than 100 µM. It also gave a TGI [25] greater than 100 µM, a TGI [26] greater than 100 µM and a TGI [27] greater than 100 µM. The TGI [28] was greater than 100 µM, the TGI [29] was greater than 100 µM and the TGI [30] was greater than 100 µM. The TGI [31] was greater than 100 µM, the TGI [32] was greater than 100 µM and the TGI [33] was greater than 100 µM. It also gave a TGI [34] greater than 100 µM, a TGI [35] greater than 100 µM and a TGI [36] greater than 100 µM. It also gave a TGI [37] greater than 100 µM, a TGI [38] greater than 100 µM and a TGI [39] greater than 100 µM. For the same compound, the TGI [40] was greater than 100 µM, the TGI [41] was greater than 100 µM and the TGI [43] was greater than 100 µM. It also gave a TGI [44] greater than 100 µM, a TGI [45] greater than 100 µM and a TGI [46] greater than 100 µM. It also gave a TGI [47] greater than 100 µM, a TGI [48] greater than 100 µM and a TGI [49] greater than 100 µM. It also gave a TGI [50] greater than 100 µM, a TGI [51] greater than 100 µM and a TGI [52] greater than 100 µM. The TGI [53] was greater than 100 µM, the TGI [54] was greater than 100 µM and the TGI [55] was greater than 100 µM. It also gave a TGI [56] greater than 100 µM, a TGI [57] greater than 100 µM and a TGI [59] greater than 100 µM.
